Patent US8119629B2, “Carboxamide GABAA α2 modulators” (Bristol-Meyers Squibb Company, priority 2007, dated 2012)
Counter-ions that a name gives are not always drawn.

Target: T1, rat GABAA α2β2γ2 Receptors (Rattus norvegicus, UniProt P23576)
T1 construct: expressed in transfected cells; pIRES Neo2 / Hygro2 / Puro2 vectors
Test: PatchXpress 7000A automated parallel patch-clamp: potentiation of GABA EC20 current in HEK293 cells
Type: cell-based
Settings: percent increase in mean GABA EC20 current response; HEK293 cells stably expressing rat GABAA α2β2γ2; voltage-clamped at −60 mV
Experimental: Cell Line Generation and Transient Expression. In order to generate stable clonal lines expressing GABAA configurations containing α2β2γ2 subunits, HEK293 cells were transfected with 2 μg of the subunit, using the Invitrogen Lipofectamine PLUS protocol. The following DNA and vector were used for the stable transfection: α2 subunits in pIRES Neo2, β2 subunit in pIRES Hygro2, and a γ2 subunit in pIRES Puro2. Transfectants were selected with G418, Hygromycin B, and Puromycin antibiotics and cloned by limiting dilution. For transient expression, transfections were performed using the Amaxa transfection protocol and 2 μg DNA of the GABAA receptor subunit using Amaxa transfection protocol. Cells were used for experiments 24-72 hrs post transfection.
PatchXpress® 7000A Automated Parallel Patch-Clamp System. HEK293 cells stably expressing recombinant the rat GABAA/α2β2γ2 configuration were harvested by a single DPBS wash followed by 0.025% Trypsin-EDTA treatment for one minute at room temperature. A 6-ml cell suspension (1.7×10^5 cells/ml) was centrifuged at 500 rpm for 60 s. The cell pellet was gently agitated, suspended in 150 μl extracellular saline buffer, and transferred to a 1.5-ml tube.
After manually placing the AVIVA Biosciences SealChip 16™ in the holder of the PatchXpress®, the SealChip16™ was automatically prepared for application of the cells. Intracellular solution containing (in mM) CsCl, 135; EGTA, 11; MgCl2, 1; HEPES, 10; ATP, 5; GTP, 0.3 (pH 7.3 with CsOH, 290-300 mOsmol) was injected into the bottom of each chamber, and extracellular solution containing (in mM) NaCl, 140; KCl, 4; CaCl2, 1.8; MgCl2, 1; glucose, 10; HEPES, 10; ATP-K2, 5 (pH 7.4 with NaOH 305-310 mOsmol) was perfused into the top of the chambers through a 16-nozzle wash station. Throughout this period, the pressure controller maintained a positive pressure (+10 mmHg) from the intracellular side to keep the hole free of debris. Seal formation was achieved by a ramp increase in negative pressure from 0 to −35 mmHg at a rate of −3.5 mmHg/s every 10 s until a giga ohm seal was obtained and verified for 30 s.
Compounds were prepared from fresh DMSO stock and were transferred to a 96-well disposable glass insert compound plate for placement in the PatchXpress®. A full 10 point concentration-response curve for GABA was obtained for the GABA receptor cell line, from which an EC20 was estimated. Test compounds were assayed for their ability to potentiate the current response by an EC20 concentration of GABA. Each experiment began by two consecutive applications of GABA EC20 alone. Following formation of a giga-ohm seal, patch chambers were perfused with extracellular saline for 60 s to remove excess cells from the well. Cells were then voltage-clamped to −60 mV for the duration of the experiment. After 60 s, 30 μl (10 μl/s over 3 s) of GABA EC20 concentration, which elicited a GABA receptor-mediated inward Cl^− current generally in the order of 200-300 pA in peak amplitude, was added to each chamber. The GABA EC20 concentration was then washed out of the recording chamber after 5 s and washing with extracellular saline was continued for 60 s. After another 60 s, a second GABA EC20 concentration was applied under the same paradigm. […] Following the second GABA EC20 application, the lowest concentration of test compound in the presence of the GABA EC20 concentration was similarly applied. Ascending concentrations of the test compound were applied successively to an individual well in the presence of the GABA EC20 concentration.
Only cells meeting strict predetermined patch-clamp QC parameters, including seal resistance, membrane resistance, and holding current were included in data analysis. GABA current responses in the presence of test compound were measured and expressed as the mean of the initial control GABA EC20 current responses. The peak current amplitude was measured using DataXpress/pCLAMP9 (Axon Instruments). Linear leak subtraction was performed off-line. […]

T1 sequence (P23576 29-451): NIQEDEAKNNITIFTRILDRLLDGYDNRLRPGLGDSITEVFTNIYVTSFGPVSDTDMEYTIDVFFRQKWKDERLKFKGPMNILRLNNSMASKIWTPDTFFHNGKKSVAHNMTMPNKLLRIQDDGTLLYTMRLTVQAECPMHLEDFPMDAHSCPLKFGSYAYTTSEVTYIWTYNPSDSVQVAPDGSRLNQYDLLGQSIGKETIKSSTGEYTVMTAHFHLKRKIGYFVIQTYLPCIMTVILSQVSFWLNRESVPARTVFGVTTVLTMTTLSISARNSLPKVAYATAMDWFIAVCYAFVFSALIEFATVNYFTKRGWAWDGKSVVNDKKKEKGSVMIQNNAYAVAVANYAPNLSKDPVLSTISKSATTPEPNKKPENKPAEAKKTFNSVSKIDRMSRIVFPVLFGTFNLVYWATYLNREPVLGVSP
T1 sequence (P63138 25-474 partner limits assumed): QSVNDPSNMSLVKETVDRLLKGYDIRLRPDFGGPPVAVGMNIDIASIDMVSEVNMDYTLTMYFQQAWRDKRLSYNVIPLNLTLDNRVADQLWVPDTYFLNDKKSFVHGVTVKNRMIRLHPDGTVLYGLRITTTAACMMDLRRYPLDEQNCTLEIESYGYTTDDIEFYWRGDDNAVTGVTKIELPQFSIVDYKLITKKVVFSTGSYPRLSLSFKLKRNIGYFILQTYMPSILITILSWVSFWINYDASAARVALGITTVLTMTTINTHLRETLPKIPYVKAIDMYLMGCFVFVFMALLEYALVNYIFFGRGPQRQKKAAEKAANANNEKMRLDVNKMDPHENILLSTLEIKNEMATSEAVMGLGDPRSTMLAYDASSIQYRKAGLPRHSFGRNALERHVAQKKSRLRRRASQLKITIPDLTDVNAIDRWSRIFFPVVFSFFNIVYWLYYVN
T1 sequence (P18508 39-466 partner): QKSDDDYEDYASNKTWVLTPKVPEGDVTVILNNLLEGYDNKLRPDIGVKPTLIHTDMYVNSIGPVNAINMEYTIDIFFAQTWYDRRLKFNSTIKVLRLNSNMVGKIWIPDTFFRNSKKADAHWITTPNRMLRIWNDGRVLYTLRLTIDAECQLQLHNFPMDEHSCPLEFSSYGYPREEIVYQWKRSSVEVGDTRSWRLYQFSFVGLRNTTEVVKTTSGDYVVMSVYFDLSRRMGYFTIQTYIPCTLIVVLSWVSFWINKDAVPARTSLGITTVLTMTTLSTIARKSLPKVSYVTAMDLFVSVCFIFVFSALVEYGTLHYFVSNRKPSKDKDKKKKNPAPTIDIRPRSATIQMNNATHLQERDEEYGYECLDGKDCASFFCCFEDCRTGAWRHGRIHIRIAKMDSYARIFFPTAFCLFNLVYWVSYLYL

In the case of `C#Cc1ccc2c(c1)C(c1ccccc1)=NCc1c(C(=O)NCCOCCNC(=O)c3ncn4c3CN=C(c3ccccc3)c3cc(C#C)ccc3-4)ncn1-2` [Example 23, N,N′-(2,2′-Oxybis(ethane-2,1-diyl))bis(8-ethynyl-6-phenyl-4H-benzo[f]imidazo[1,5-a][1,4]diazepine-3-carboxamide)], the “GABAA α2 EP EMAX (%)” value is reported as “* (200% < Emax < 300 *)”.
`C#Cc1ccc2c(c1)C(c1ccccc1)=NCc1c(C(=O)NCCN(C)CCNC(=O)c3ncn4c3CN=C(c3ccccc3)c3cc(C#C)ccc3-4)ncn1-2` [Example 24, N,N′-(2,2′-(Methylazanediyl)bis(ethane-2,1-diyl))bis(8-ethynyl-6-phenyl-4H-benzo[f]imidazo[1,5-a][1,4]diazepine-3-carboxamide)] was tested, and the “GABAA α2 EP EMAX (%)” value was “** (300% < Emax < 400 **)”.
`C#Cc1ccc2c(c1)C(c1ccccc1)=NCc1c(C(=O)NCCSCCNC(=O)c3ncn4c3CN=C(c3ccccc3)c3cc(C#C)ccc3-4)ncn1-2` [Example 25, N,N′-(2,2′-Thiobis(ethane-2,1-diyl))bis(8-ethynyl-6-phenyl-4H-benzo[f]imidazo[1,5-a][1,4]diazepine-3-carboxamide)] was tested, and the “GABAA α2 EP EMAX (%)” value was “* (200% < Emax < 300 *)”.

Same assay, conditions: percent increase in mean GABA EC20 current response; HEK293 cells stably expressing rat GABAA α2β2γ2; voltage-clamped at −60 mV; read-out: GABAA α2 EP EMAX (%)

Compared with `C#Cc1ccc2c(c1)C(c1ccccc1)=NCc1c(C(=O)N(CC)CC)ncn1-2` [Example 1, N,N-Diethyl-8-ethynyl-6-phenyl-4H-benzo[f]imidazo[1,5-a][1,4]diazepine-3-carboxamide], `C#Cc1ccc2c(c1)C(c1ccccc1)=NCc1c(C(=O)NCC)ncn1-2` [Example 2, N-Ethyl-8-ethynyl-6-phenyl-4H-benzo[f]imidazo[1,5-a][1,4]diazepine-3-carboxamide dihydrochloride] is lower in Emax: 400 to 500% for the first, 300 to 400% for the second.

First: C#Cc1ccc2c(c1)C(c1ccccc1)=NCc1c(C(N)=O)ncn1-2 [Example 3, 8-Ethynyl-6-phenyl-4H-benzo[f]imidazo[1,5-a][1,4]diazepine-3-carboxamide]
Second: C#Cc1ccc2c(c1)C(c1ccccc1)=NCc1c(C(=O)NCCO)ncn1-2 [Example 5, 8-Ethynyl-N-(2-hydroxyethyl)-6-phenyl-4H-benzo[f]imidazo[1,5-a][1,4]diazepine-3-carboxamide]
The Emax of the first is lower: 300 to 400% for the first, 400 to 500% for the second.

First: C#Cc1ccc2c(c1)C(c1ccccc1)=NCc1c(C(=O)NCCOC)ncn1-2 [Example 4, 8-Ethynyl-N-(2-methoxyethyl)-6-phenyl-4H-benzo[f]imidazo[1,5-a][1,4]diazepine-3-carboxamide Dihydrochloride]
Second: C#Cc1ccc2c(c1)C(c1ccccc1)=NCc1c(C(=O)NCCCOC)ncn1-2 [Example 18, 8-Ethynyl-N-(3-methoxypropyl)-6-phenyl-4H-benzo[f]imidazo[1,5-a][1,4]diazepine-3-carboxamide]
The Emax of the first is higher: greater than 500% for the first, 400 to 500% for the second.

First: C#Cc1ccc2c(c1)C(c1ccccc1)=NCc1c(C(=O)NCCN(C)C)ncn1-2 [Example 6, N-(2-(Dimethylamino)ethyl)-8-ethynyl-6-phenyl-4H-benzo[f]imidazo[1,5-a][1,4]diazepine-3-carboxamide]
Second: C#Cc1ccc2c(c1)C(c1ccccc1)=NCc1c(C(=O)NCCOC(C)C)ncn1-2 [Example 20, 8-Ethynyl-N-(2-isopropoxyethyl)-6-phenyl-4H-benzo[f]imidazo[1,5-a][1,4]diazepine-3-carboxamide]
The Emax of the first is lower: 300 to 400% for the first, 400 to 500% for the second.

`C#Cc1ccc2c(c1)C(c1ccccc1)=NCc1c(C(=O)NCC(=O)OCC)ncn1-2` [Example 7, Ethyl 2-(8-ethynyl-6-phenyl-4H-benzo[f]imidazo[1,5-a][1,4]diazepine-3-carboxamido)acetate] and `C#Cc1ccc2c(c1)C(c1ccccc1)=NCc1c(C(=O)NCCOCC)ncn1-2` [Example 12, N-(2-Ethoxyethyl)-8-ethynyl-6-phenyl-4H-benzo[f]imidazo[1,5-a][1,4]diazepine-3-carboxamide dihydrochloride] fall in the same range of Emax: 300 to 400% for the first, 300 to 400% for the second.

First: C#Cc1ccc2c(c1)C(c1ccccc1)=NCc1c(C(=O)N3CCN(C)CC3)ncn1-2 [Example 8, (8-Ethynyl-6-phenyl-4H-benzo[f]imidazo[1,5-a][1,4]diazepin-3-yl)(4-methylpiperazin-1-yl)methanone]
Second: C#Cc1ccc2c(c1)C(c1ccccc1)=NCc1c(C(=O)N3CCOCC3)ncn1-2 [Example 9]
The Emax of the first is lower: 300 to 400% for the first, 400 to 500% for the second.

First: C#Cc1ccc2c(c1)C(c1ccccc1)=NCc1c(C(=O)NC3CC3)ncn1-2 [Example 10, N-Cyclopropyl-8-ethynyl-6-phenyl-4H-benzo[f]imidazo[1,5-a][1,4]diazepine-3-carboxamide]
Second: C#Cc1ccc2c(c1)C(c1ccccc1)=NCc1c(C(=O)N[C@@H](COC)C3CC3)ncn1-2 [Example 14, N—((R)-1-Cyclopropyl-2-methoxyethyl)-8-ethynyl-6-phenyl-4H-benzo[f]imidazo[1,5-a][1,4]diazepine-3-carboxamide]
The Emax of the first is higher: greater than 500% for the first, 200 to 300% for the second.

`C#Cc1ccc2c(c1)C(c1ccccc1)=NCc1c(C(=O)NC(CC)COC)ncn1-2` (centres unmarked) [Example 13, 8-Ethynyl-N-(1-methoxybutan-2-yl)-6-phenyl-4H-benzo[f]imidazo[1,5-a][1,4]diazepine-3-carboxamide] and `C#Cc1ccc2c(c1)C(c1ccccc1)=NCc1c(C(=O)NC(COC)COC)ncn1-2` [Example 15, N-(1,3-Dimethoxypropan-2-yl)-8-ethynyl-6-phenyl-4H-benzo[f]imidazo[1,5-a][1,4]diazepine-3-carboxamide] fall in the same range of Emax: 200 to 300% for the first, 200 to 300% for the second.

Compared with `C#Cc1ccc2c(c1)C(c1ccccc1)=NCc1c(C(=O)N(CCOC)CCOC)ncn1-2` [Example 16, 8-Ethynyl-N,N-bis(2-methoxyethyl)-6-phenyl-4H-benzo[f]imidazo[1,5-a][1,4]diazepine-3-carboxamide], `C#Cc1ccc2c(c1)C(c1ccccc1)=NCc1c(C(=O)NCCOCCC)ncn1-2` [Example 19, 8-Ethynyl-6-phenyl-N-(2-propoxyethyl)-4H-benzo[f]imidazo[1,5-a][1,4]diazepine-3-carboxamide] is higher in Emax: 200 to 300% for the first, 400 to 500% for the second.

`C#Cc1ccc2c(c1)C(c1ccccc1)=NCc1c(C(=O)NC(C)COC)ncn1-2` (centres unmarked) [Example 17, 8-Ethynyl-N-(1-methoxypropan-2-yl)-6-phenyl-4H-benzo[f]imidazo[1,5-a][1,4]diazepine-3-carboxamide] and `C#Cc1ccc2c(c1)C(c1ccccc1)=NCc1c(C(=O)NC[C@@H](C)O)ncn1-2` [Example 27, 8-Ethynyl-N—((R)-2-hydroxypropyl)-6-phenyl-4H-benzo[f]imidazo[1,5-a][1,4]diazepine-3-carboxamide] fall in the same range of Emax: 200 to 300% for the first, 200 to 300% for the second.

First: C#Cc1ccc2c(c1)C(c1ccccc1)=NCc1c(C(=O)N3CCN(c4ncccn4)CC3)ncn1-2 [Example 21, (8-Ethynyl-6-phenyl-4H-benzo[f]imidazo[1,5-a][1,4]diazepin-3-yl)(4-(pyrimidin-2-yl)piperazin-1-yl)methanone]
Second: C#Cc1ccc2c(c1)C(c1ccccc1)=NCc1c(C(=O)NC[C@H](C)O)ncn1-2 [Example 28, 8-Ethynyl-N—((S)-2-hydroxypropyl)-6-phenyl-4H-benzo[f]imidazo[1,5-a][1,4]diazepine-3-carboxamide]
The Emax of the first is lower: 200 to 300% for the first, 300 to 400% for the second.

In the case of `C#Cc1ccc2c(c1)C(c1ccccc1)=NCc1c(C(=O)NCC(O)CC)ncn1-2` (centres unmarked) [Example 26, 8-Ethynyl-N-(2-hydroxybutyl)-6-phenyl-4H-benzo[f]imidazo[1,5-a][1,4]diazepine-3-carboxamide], the Emax is reported as 200 to 300%.
